Tests used:
[1] = Metabolic stability in human liver microsomes assessed as parent compound remaining at 0.1 uM in presence of NADPH after 30 mins by LC-MS/MS analysis; format: ADME, microsome; details: read-out: Stability
[2] = Metabolic stability in mouse liver microsomes assessed as parent compound remaining at 0.1 uM in presence of NADPH after 30 mins by LC-MS/MS analysis; format: ADME, microsome; details: read-out: Stability
[3] = Metabolic stability in rat liver microsomes assessed as parent compound remaining at 0.1 uM in presence of NADPH after 30 mins by LC-MS/MS analysis; format: ADME, microsome; details: read-out: Stability
[4] = Octanol-phosphate buffer distribution coefficient, log D of the compound at pH 7.4 measured after 1 hr by HPLC method; format: physicochemical
[5] = Tmax in Balb/c mouse at 20 mg/kg, po by LC-MS analysis; format: ADME, organism-based; details: in vivo
[6] = tested on: Mus musculus; assay: AUC (0 to infinity) in Balb/c mouse at 2 mg/kg, iv by LC-MS analysis; format: ADME, organism-based; set-up: dose 2 mg/kg, route intravenous, time infinity; details: in vivo
[7] = Cmax in Balb/c mouse pretreated with CYP inhibitor ABT at 20 mg/kg, po by LC-MS analysis; format: ADME, organism-based; set-up: dose 20 mg/kg, route oral; details: in vivo
[8] = tested on: Mus musculus; assay: AUC (0 to infinity) in Balb/c mouse at 20 mg/kg, po by LC-MS analysis; format: ADME, organism-based; set-up: dose 20 mg/kg, route oral, time infinity; details: in vivo
[9] = tested on: Mus musculus; assay: AUC (0 to infinity) in Balb/c mouse pretreated with CYP inhibitor ABT at 20 mg/kg, po by LC-MS analysis; format: ADME, organism-based; set-up: dose 20 mg/kg, route oral, time infinity; details: in vivo
[10] = Apparent half life in Balb/c mouse pretreated with CYP inhibitor ABT at 20 mg/kg, po by LC-MS analysis; format: ADME, organism-based; details: in vivo, read-out: t1/2(app) (converted)
[11] = Cmax in Balb/c mouse at 20 mg/kg, po by LC-MS analysis; format: ADME, organism-based; set-up: dose 20 mg/kg, route oral; details: in vivo
[12] = Tmax in Balb/c mouse pretreated with CYP inhibitor ABT at 20 mg/kg, po by LC-MS analysis; format: ADME, organism-based; details: in vivo
[13] = Apparent half life in Balb/c mouse at 20 mg/kg, po by LC-MS analysis; format: ADME, organism-based; details: in vivo, read-out: t1/2(app) (converted)
[14] = Apparent half life in Balb/c mouse at 2 mg/kg, iv by LC-MS analysis; format: ADME, organism-based; details: in vivo, read-out: t1/2(app) (converted)
[15] = Cmax in humanized NOD-scid IL2Rgamma null mouse infected with Plasmodium falciparum 3D70087/N9 at 10 mg/kg, po up to 96 hrs post dose by LC-MS/MS analysis; format: ADME, organism-based; set-up: dose 10 mg/kg, route oral; details: in vivo
[16] = tested on: Mus musculus; assay: AUC in humanized NOD-scid IL2Rgamma null mouse infected with Plasmodium falciparum 3D70087/N9 at 10 mg/kg, po up to 24 hrs post dose by LC-MS/MS analysis; format: ADME, organism-based; set-up: time < 24 hr, dose 10 mg/kg, route oral; details: in vivo
[17] = tested on: Mus musculus; assay: AUC in humanized NOD-scid IL2Rgamma null mouse infected with Plasmodium falciparum 3D70087/N9 at 50 mg/kg, po up to 24 hrs post dose by LC-MS/MS analysis; format: ADME, organism-based; set-up: time < 24 hr, dose 50 mg/kg, route oral; details: in vivo
[18] = Cmax in Balb/c mouse pretreated with CYP inhibitor ABT at 5 mg/kg, po by LC-MS analysis; format: ADME, organism-based; set-up: dose 5 mg/kg, route oral; details: in vivo
[19] = tested on: Mus musculus; assay: AUC in humanized NOD-scid IL2Rgamma null mouse infected with Plasmodium falciparum 3D70087/N9 at […], po up to 24 hrs post dose by LC-MS/MS analysis; format: ADME, organism-based; set-up: dose 2.5 mg/kg, time < 24 hr, route oral; details: in vivo
[20] = Cmax in humanized NOD-scid IL2Rgamma null mouse infected with Plasmodium falciparum 3D70087/N9 at 5 mg/kg, po up to 96 hrs post dose by LC-MS/MS analysis; format: ADME, organism-based; set-up: dose 5 mg/kg, route oral; details: in vivo
[21] = tested on: Mus musculus; assay: AUC in humanized NOD-scid IL2Rgamma null mouse infected with Plasmodium falciparum 3D70087/N9 at 5 mg/kg, po up to 24 hrs post dose by LC-MS/MS analysis; format: ADME, organism-based; set-up: time < 24 hr, dose 5 mg/kg, route oral; details: in vivo
[22] = Cmax in humanized NOD-scid IL2Rgamma null mouse infected with Plasmodium falciparum 3D70087/N9 at […], po up to 96 hrs post dose by LC-MS/MS analysis; format: ADME, organism-based; set-up: dose 2.5 mg/kg, route oral; details: in vivo
[23] = Tmax in humanized NOD-scid IL2Rgamma null mouse infected with Plasmodium falciparum 3D70087/N9 at […], po up to 96 hrs post dose by LC-MS/MS analysis; format: ADME, organism-based; details: in vivo
[24] = Tmax in humanized NOD-scid IL2Rgamma null mouse infected with Plasmodium falciparum 3D70087/N9 at 5 mg/kg, po up to 96 hrs post dose by LC-MS/MS analysis; format: ADME, organism-based; details: in vivo
[25] = Tmax in Balb/c mouse pretreated with CYP inhibitor ABT at 5 mg/kg, po by LC-MS analysis; format: ADME, organism-based; details: in vivo
[26] = Apparent half life in Balb/c mouse pretreated with CYP inhibitor ABT at 5 mg/kg, po by LC-MS analysis; format: ADME, organism-based; details: in vivo, read-out: t1/2(app) (converted)
[27] = Cmax in humanized NOD-scid IL2Rgamma null mouse infected with Plasmodium falciparum 3D70087/N9 at 50 mg/kg, po up to 96 hrs post dose by LC-MS/MS analysis; format: ADME, organism-based; set-up: dose 50 mg/kg, route oral; details: in vivo
[28] = In vivo drug metabolism in Balb/c mouse assessed as naphthyridine core or pyridine substituent oxidation metabolite formation in plasma at 5 mg/kg, po or […], iv by LC-MS analysis; format: ADME, organism-based
[29] = Tmax in humanized NOD-scid IL2Rgamma null mouse infected with Plasmodium falciparum 3D70087/N9 at 50 mg/kg, po up to 96 hrs post dose by LC-MS/MS analysis; format: ADME, organism-based; details: in vivo
[30] = Volume of distribution in Balb/c mouse at […], iv by LC-MS analysis; format: ADME, organism-based; details: in vivo
[31] = tested on: Mus musculus; assay: AUC (0 to infinity) in Balb/c mouse at […], iv by LC-MS analysis; format: ADME, organism-based; set-up: dose 1.5 mg/kg, time infinity, route intravenous; details: in vivo
[32] = Tmax in humanized NOD-scid IL2Rgamma null mouse infected with Plasmodium falciparum 3D70087/N9 at 10 mg/kg, po up to 96 hrs post dose by LC-MS/MS analysis; format: ADME, organism-based; details: in vivo

Compound	remaining at 0.5 h, 0.1 µM [1] [%]	remaining at 0.5 h, 0.1 µM [2] [%]	remaining at 0.5 h, 0.1 µM [3] [%]	also measured
O=S(=O)(CCN1CCCC1)c1cccc(-c2ccc3nccc(-c4ccncc4)c3n2)c1	56	60	66	–
CS(=O)(=O)Nc1cccc(-c2ccc3nccc(-c4ccncc4)c3n2)c1	59	50	49	–
CS(=O)(=O)Nc1ccc2nccc(-c3ccncc3)c2n1	96	95	94	–
O=S(=O)(NCCN1CCOCC1)c1cccc(-c2ccc3nccc(-c4ccncc4)c3n2)c1	< 1	< 1	< 1	–
O=S(=O)(c1cccc(-c2ccc3nccc(-c4ccncc4)c3n2)c1)N1CC[C@H](O)C1	17	12	10	–
O=S(=O)(CCO)c1cccc(-c2ccc3nccc(-c4ccncc4)c3n2)c1	95	52	59	–
NS(=O)(=O)c1ccc(-c2ccc3nccc(-c4ccncc4)c3n2)cc1	76	13	36	–
Nc1cccc(-c2ccc3nccc(-c4ccncc4)c3n2)c1	78	54	61	–
C[C@@H]1CN(S(=O)(=O)c2cccc(-c3ccc4nccc(-c5ccncc5)c4n3)c2)C[C@H](C)N1	34	33	36	–
O=S(=O)(c1cccc(-c2ccc3nccc(-c4ccncc4)c3n2)c1)N1CCC(O)CC1	5	7	11	–
O=S(=O)(NCc1ccccc1)c1cccc(-c2ccc3nccc(-c4ccncc4)c3n2)c1	42	2	6	logD at 1 h [4]: 1.8 to 4.2
NS(=O)(=O)c1cccc(-c2ccc3nccc(-c4ccncc4F)c3n2)c1	–	–	–	logD at 1 h [4]: 1.8 to 4.2
O=S(=O)(NCC1COC1)c1cccc(-c2ccc3nccc(-c4ccncc4)c3n2)c1	2	19	8	–
NS(=O)(=O)c1cccc(-c2ccc3nccc(-c4ccncc4)c3n2)c1	–	–	–	Tmax [5]: 0.5 h; AUC [6]: 111 µM/min; Cmax [7]: 500 nM; AUC [8]: 523 µM/min; AUC [9]: 243 µM/min; half-life [10]: 3.2 h; Cmax [11]: 5000 nM; Tmax [12]: 0.5 to 1 h; half-life [13]: 1.6 h; half-life [14]: 2.5 h
NS(=O)(=O)c1cccc(-c2ccc3nccc(-c4ccnc(C(F)(F)F)c4)c3n2)c1	95	97	96	Cmax [15]: 2230 nM; AUC [16]: 2035 µM/min; AUC [17]: 5591 µM/min; Cmax [18]: 2800 nM; AUC [19]: 658 µM/min; Cmax [20]: 1470 nM; logD at 1 h [4]: 1.8 to 4.2; AUC [21]: 1198 µM/min; Cmax at 96 h [22]: 750 nM; Tmax at 96 h [23]: 4 h; Tmax [24]: 4 h; Tmax [25]: 1 h; half-life [26]: 33 h; Cmax [27]: 6360 nM; Drug metabolism [28]: Metabolite_Detected; Tmax [29]: 2.5 h; Vd [30]: 7 L/kg; AUC [31]: 350 µM/min; Tmax [32]: 4 h
O=S(=O)(NCCN1CCCC1)c1cccc(-c2ccc3nccc(-c4ccnc(C(F)(F)F)c4)c3n2)c1	14	8	16	–
NS(=O)(=O)c1cncc(-c2ccc3nccc(-c4cn[nH]c4)c3n2)c1	–	2	–	–

— ChEMBL document CHEMBL4118268, “Identification, Characterization, and Optimization of 2,8-Disubstituted-1,5-naphthyridines as Novel Plasmodium falciparum Phosphatidylinositol-4-kinase Inhibitors with in Vivo Efficacy in a Humanized Mouse Model of Malaria” (J Med Chem, 2018)
